The values below come from ChEMBL document CHEMBL3872248, “Discovery and initial optimization of alkoxyanthranilic acid derivatives as inhibitors of HCV NS5B polymerase” (Bioorg Med Chem Lett, 2017).

The structures appear in SMILES notation. The source made the active and inactive calls. The calls are words filed in the database; no cut-off is given here.

One test relates to Hepatitis C virus. As to the kind of experiment: Antiviral activity against HCV genotype 1b Con1 expressing NS3 protease infected in human Huh-7 cells assessed as reduction in viral RNA replication measured after 3 days by EnduRen-based luciferase reporter gene assay. The format is functional, cell-based, Hepacivirus hominis. The following applies: genotype 1b Con1, Huh-7, 72 h. Background: In a reporter assay the amount or activity of a reporter protein is the signal.
Broadly, the EC50 is the concentration giving half of the maximal effect. Turning to `O=C(O)CNC(=O)c1ccc(OCc2ccc(Cl)cc2)c(N2Cc3ccccc3C2=O)c1`, the EC50 is greater than 100 µM.

In another test the target is RNA-directed RNA polymerase (Hepacivirus hominis, UniProt O39930, C316Y). As to the kind of experiment: Inhibition of wild-type HCV genotype 1b Con1 NS5B RNA dependent RNA polymerase C316Y mutant expressed in Escherichia coli BL21(DE3) Star assessed as inhibition of [alpha-32P]UTP incorporation using polyrA/T12 as template/primer measured after 60 mins by TopCount NXT method. Also on record: species or system Hepatitis C virus (isolate Con1).
Chain of RNA-directed RNA polymerase (O39930 entry or part of it C316Y): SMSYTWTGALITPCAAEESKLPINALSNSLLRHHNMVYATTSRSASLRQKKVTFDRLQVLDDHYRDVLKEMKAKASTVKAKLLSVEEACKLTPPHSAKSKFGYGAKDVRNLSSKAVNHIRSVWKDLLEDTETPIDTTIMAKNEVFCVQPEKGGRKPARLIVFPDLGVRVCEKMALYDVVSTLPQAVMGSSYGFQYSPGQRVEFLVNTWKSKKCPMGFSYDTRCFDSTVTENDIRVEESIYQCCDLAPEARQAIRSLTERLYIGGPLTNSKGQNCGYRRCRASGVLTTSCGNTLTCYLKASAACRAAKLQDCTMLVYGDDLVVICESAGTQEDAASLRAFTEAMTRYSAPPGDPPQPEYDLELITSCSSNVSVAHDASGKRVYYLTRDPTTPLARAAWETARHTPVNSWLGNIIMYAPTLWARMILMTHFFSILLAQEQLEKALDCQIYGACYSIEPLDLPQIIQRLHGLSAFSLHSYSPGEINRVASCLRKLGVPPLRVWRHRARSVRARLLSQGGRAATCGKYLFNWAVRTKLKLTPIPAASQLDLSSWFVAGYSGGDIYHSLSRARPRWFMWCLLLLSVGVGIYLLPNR
Details: not given
The term IC50 denotes the concentration at which inhibition is half-maximal. Turning to `O=C(Nc1c(OCc2ccc(Cl)cc2)cccc1C(=O)O)c1ccccc1`, the 50% inhibitory concentration (IC50) was greater than 50 µM.

Another test deals with Hepatitis C virus. The test is described as follows: Antiviral activity against HCV genotype 1b Con1 expressing C-terminal truncated NS5B assessed as inhibition of viral RNA production at 50 uM by high throughput screening method. The format is functional. Particulars: Hepacivirus hominis.
Take `O=C(Nc1c(OCc2ccc(Cl)cc2)cccc1C(=O)O)c1ccccc1`: the inhibition result was “Active”.

Test system in the next test: not listed separately
As to the kind of experiment: Inhibition of wild-type HCV genotype 1b Con1 C-terminal truncated NS5B RNA dependent RNA polymerase expressed in Escherichia coli BL21(DE3) Star assessed as inhibition of [alpha-32P]UTP incorporation using polyrA/T12 as template/primer measured after 60 mins by TopCount NXT method. Also on record: species or system Hepatitis C virus (isolate Con1).
Details: not given
As to `O=C(O)/C=C/c1cccc2c1CN(c1c(OCc3ccc(Cl)cc3)cccc1C(=O)O)C2=O`, the IC50 was found to be 1.7 µM.
In the case of `CN(C(=O)c1ccccc1)c1c(OCc2ccc(Cl)cc2)cccc1C(=O)O`, the IC50 is greater than 50 µM.
Take `O=C(O)c1ccc(OCc2ccc(Cl)cc2)c(NC(=O)c2ccccc2)c1`: the concentration for half-maximal inhibition (IC50) came to 8.3 µM.
The same measure, in the same setting: with `O=C(O)CCCOc1ccccc1C(=O)Nc1c(OCc2ccc(Cl)cc2)cccc1C(=O)O` the figure was 2.1 µM; with `O=C(O)CCCOc1cccc2c1CN(c1c(OCc3ccc(Cl)cc3)cccc1C(=O)O)C2=O`, 11 µM; with `O=C(Nc1c(OCc2ccc(Cl)cc2)cccc1C(=O)O)c1ccccc1`, 8.4 µM.
Turning to `O=C(NCCO)c1ccc(OCc2ccc(Cl)cc2)c(NC(=O)c2ccccc2)c1`, the IC50 was greater than 50 µM.
For the compound `O=C(O)c1cccc(OCc2ccc(Cl)cc2)c1N1CCCc2ccccc2C1=O`, the IC50 was determined as 32 µM.
Take `O=C(O)COc1cccc2c1CN(c1c(OCc3ccc(Cl)cc3)cccc1C(=O)O)C2=O`: the IC50 amounted to 4.4 µM.
On to `O=C(Nc1c(OCc2ccc(Cl)cc2)cccc1-c1nnn[nH]1)c1ccccc1`, for which the half-inhibitory concentration (IC50) amounted to 25 µM.
Turning to `O=C(O)CNC(=O)c1ccc(OCc2ccc(Cl)cc2)c(NC(=O)c2ccccc2)c1`, the half-maximal inhibitory concentration (IC50) came out at 6.2 µM.
The same measure, in the same setting: with `O=C(Nc1c(OCc2ccc(Cl)cc2)cccc1C(=O)O)c1ccccc1O` the figure was 4.6 µM.
As to `CS(=O)(=O)NC(=O)c1ccc(OCc2ccc(Cl)cc2)c(NC(=O)c2ccccc2)c1`, the IC50 was 15 µM.
As to `O=C(Nc1c(OCc2ccc(Cl)cc2)cccc1C(=O)NCCO)c1ccccc1`, the half-inhibitory concentration (IC50) was greater than 50 µM.
In the case of `O=C(O)COc1ccccc1C(=O)Nc1c(OCc2ccc(Cl)cc2)cccc1C(=O)O`, the 50% inhibitory concentration (IC50) was 1.2 µM.
The same measure, in the same setting: with `O=C(O)c1cccc(OCc2ccc(Cl)cc2)c1N1Cc2ccccc2C1=O` the figure was 8.7 µM.
For `O=C(O)CNC(=O)c1ccc(OCc2ccc(Cl)cc2)c(N2Cc3ccccc3C2=O)c1`, the IC50 was 0.88 µM.
In the case of `CS(=O)(=O)NC(=O)c1cccc(OCc2ccc(Cl)cc2)c1NC(=O)c1ccccc1`, the IC50 stood at 24 µM.
On to `O=C(O)c1cccc(OCc2ccc(Cl)cc2)c1N1Cc2c(O)cccc2C1=O`, for which the IC50 was 6.6 µM.
As for `O=C(O)Cc1cccc(OCc2ccc(Cl)cc2)c1NC(=O)c1ccccc1`, the IC50 was determined as 10 µM.
